Reference: US5753631A, “Intercellular adhesion mediators” (Cytel Corporation, priority 1995, dated 1998)
pIC50: −log10 of the molar value.

Tests used:
recombinant E-selectin = biological target: T1, recombinant E-selectin (Homo sapiens, UniProt P16581); assay: HL-60 cell binding to recombinant E-selectin; type: cell-based; conditions: for inhibition of binding of HL-60 cells to recombinant E-selectin: FIG. 13
T1 sequence (P16581 22-556 limits assumed): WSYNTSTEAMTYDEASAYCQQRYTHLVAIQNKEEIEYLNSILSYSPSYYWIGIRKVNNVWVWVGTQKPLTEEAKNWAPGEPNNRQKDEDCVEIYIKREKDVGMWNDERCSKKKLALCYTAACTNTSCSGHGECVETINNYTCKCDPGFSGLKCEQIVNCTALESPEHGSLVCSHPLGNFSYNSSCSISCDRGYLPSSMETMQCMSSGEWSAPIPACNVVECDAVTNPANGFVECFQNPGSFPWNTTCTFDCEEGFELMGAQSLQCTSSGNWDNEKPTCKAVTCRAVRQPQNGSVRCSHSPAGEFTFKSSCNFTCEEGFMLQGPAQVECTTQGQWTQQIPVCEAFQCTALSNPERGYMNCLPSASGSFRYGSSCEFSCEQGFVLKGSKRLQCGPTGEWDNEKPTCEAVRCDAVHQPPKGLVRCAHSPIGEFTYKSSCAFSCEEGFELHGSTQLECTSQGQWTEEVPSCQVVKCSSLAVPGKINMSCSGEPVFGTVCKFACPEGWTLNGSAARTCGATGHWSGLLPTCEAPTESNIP
Description: In this assay recombinant soluble E-selectin is bound to the plastic surface of a 96 well ELISA plate. Dilutions of test compounds are added to the wells followed by HL-60 cells which bear the ligand for E-selectin. The cells are allowed to adhere to the E-selectin coated assay plate and the nonadherent cells are removed by washing the plate with an automated plate washer. Bound cells are quantitated by measuring the cellular enzyme myeloperoxidase. The concentration of oligosaccharide required to achieve 50% inhibition of control adhesion is used to compare analogs for potency.
Microflex III 96 well ELISA plates were coated with 50 μL of recombinant E-selectin (4 μg/mL) in Dulbecco's phosphate buffered saline (DPBS) and incubated at room temperature for 3 hours. The plates were then washed three times with 200 μL DPBS containing bovine serum albumin (10 mg/mL: DPBS-BSA) and incubated at room temperature for 60 minutes with DPBS-BSA.
Oligosaccharides to be tested were prepared in 1.5 mL eppendorf tubes by adding enough DPBS to make each sample a 10 mM solution according to its molecular weight. The pH was adjusted to be within 7.0 and 7.4.
After 30 minutes 2×10^5 HL-60 cells (10^7 /mL) were added and incubated for 15 minutes at room temperature. The unbound cells were removed by washing the plate 3 times with HBSS containing HEPES buffer (20 mM), glucose (0.2%), CaCl2 (1 mM) and BSA (10 mg/mL). After removal of the wash buffer the bound cells remaining were lysed by addition of Nonidet P 40 (0.1%) in 25 mM citrate/phosphate buffer. After 5 minutes 50 μL of o-phenylenediamine dihydrochloride (1 mg/mL) in citrate/phosphate buffer containing 0.001% hydrogen peroxide was added to each well. After 5 to 10 minutes the development of color was halted by the addition of 40 μL of H2 SO4. Color developed was measured in a plate reading spectrophotometer at 492 nm.

[1] = system: IgA immune complex induced lung injury; assay: IgA immune complex-induced acute lung injury in the rat; type: in vivo, rat (male Long-Evans); conditions: conclusion in words
Description: Groups of rats were dosed with either vehicle, SLN-OH (100 μpg), or with SLX-OH (100 μg) […] post induction of inflammation. Each bar represents the mean of 6 animals and vertical lines represent the standard error of the mean.
Adult male (300 g) specific pathogen-free Long-Evans rats purchased from Charles River Labs (Portage, Mich.) were employed in the studies. For the induction of IgG immune complex pulmonary inflammation rabbit polyclonal IgG rich in antibody to bovine serum albumin (antiBSA) was purchased from Organon Teknika (Westchester, PA). Intraperitoneal ketamine (10 mg/Kg) was administered for anesthesia. 2.5 mg of anti-BSA in a volume of 300 μl was instilled intratracheally via a small intratracheal catheter during inspiration after surgical exposure of the trachea. Intravenous injection of 10 mg BSA was injected intravenously to generate immune complex formation. Trace amounts of ^125 I-BSA and ^51 Cr-RBC were administered with the BSA as markers for plasma and RBC extravasation respectively. Rats were sacrificed 4 h later and lung injury was assessed by the ratio of radiolabelled albumin in the lungs relative to the circulation (permeability), the ratio of RBC in the lungs relative to the circulation (hemorrhage) and the amount of myeloperoxidase activity in a lung homogenate (neutrophil accumulation). For induction of IgA immune complex induced lung injury 1.2 mg of a murine myeloma IgA protein specific for dinitrophenol (DNP) was instilled intratracheally and 3.3 mg DNP-bovine serum albumin injected intravenously. Lung injury was assessed in the same manner described for IgG-induced lung injury.
SLX-OH, Z, the non-fucosylated control oligosaccharide SLN, or an equivalent volume of PBS were injected intravenously in three equally divided doses at 2, 2.5, and 3 h following deposition of immune complexes. This schedule for injections was selected since it coincides with the time during which rapid expression of E-selectin occurs in the pulmonary vasculature.

[2] = system: myocardial ischemia-reperfusion injury in the cat heart; assay: Myocardial ischemia-reperfusion injury in cats: ischemic myocardium; type: in vivo, cat (male); conditions: 10 mg/Kg i.v.; control 35±4%, P<0.01
Description: (§1) A model of myocardial ischemia and reperfusion injury in cats was performed according to the methods of Tsao et al (Circulation 82:1402-1412 (1990), which is incorporated herein by reference. Briefly, male cats (2.5-3.5 Kg) were anesthetized with sodium pentobarbital (30 mg/Kg, i.v.). An intratracheal tube was inserted through a mid-line incision and all cats were given intermittent positive pressure ventilation by a Harvard small animal respirator. A polyethylene catheter was inserted into the external jugular vein and the right […] was cannulated and connected to a Statham P23AC pressure transducer for the measurement of arterial blood pressure. A midline thoracotomy was performed, the pericardium was opened and the heart was exposed. A 2-0 silk suture was carefully placed around the left anterior descending artery (LAD) 10-12 mm from its origin. After a 30 minute period of stabilization myocardial ischemia was initiated by complete ligation of the LAD for 1.5 hours of ischemia followed by 4.5 hours of reperfusion. Z (10 mg/Kg in PBS) or PBS alone were administered intravenously 10 minutes prior to the initiation of reperfusion.
Area at risk was determined by reocclusion of the LAD at the end of the reperfusion period followed by the injection of Evans blue dye into the left atrium. The area of risk was, therefore, determined by negative staining.

creatinine kinase = assay: Plasma creatinine kinase after myocardial ischemia-reperfusion in cats; type: in vivo, cat; conditions: 10 mg/Kg i.v.; control 25±3, P<0.01
Description: as §1, with “After a 30 minute period of stabilization myocardial ischemia was initiated by complete ligation of the LAD for 1.5 hours of ischemia followed by 4.5 hours of reperfusion. Z (10 mg/Kg in PBS) or PBS alone were administered intravenously 10 minutes prior to the initiation of reperfusion.” left out
(§2) Endothelial dependent relaxation of coronary artery rings was determined by measuring the acetylcholine-induced relaxation of rings previously contracted with the thromboxane A2 mimetic U46619. Data are expressed as percentage relaxation. Creatinine kinase enzyme levels were measured immunochemically in plasma samples collected at the end of the reperfusion period. The adherence of PMNs to sections of coronary artery was measured in vitro using fluorescene labelled autologous cat neutrophils.

[3] = system: coronary vascular endothelium; assay: Adherence of cat PMNs to coronary endothelium in vitro; type: cell-based
Description: as §2

[4] = system: dermal and pulmonary models of inflammation; assay: Dermal and pulmonary models of inflammation: leukocyte accumulation; type: in vivo

## CC(=O)NC1C(O)OC(CO)C(OC2OC(CO)C(O)C(OC3(C(=O)O)CC(O)C(NC(C)=O)C(C(O)C(O)CO)O3)C2O)C1O (stereo not drawn) [SLN, reference compound]
Recombinant E-selectin
  inhibition of binding of HL-60 cells to recombinant E-selectin: not

## CCO[C@@H]1O[C@H](CO)[C@H](O)[C@H](O[C@@H]2O[C@H](CO)[C@@H](O[C@@H]3O[C@H](CO)[C@H](O)[C@H](O[C@]4(C(=O)O)C[C@H](O)[C@@H](NC(C)=O)[C@H]([C@H](O)[C@H](O)CO)O4)[C@H]3O)[C@H](O[C@@H]3O[C@@H](C)[C@@H](O)[C@@H](O)[C@@H]3O)[C@H]2NC(C)=O)[C@H]1O [Z, Ethyl(sodium(5-acetamido-3,5-dideoxy-α-D-glycero-D-galacto-2-nonulopyanosylonate))-(2-3)-O-(β-D-galactopyranosyl)-(1-4)-O-((α-L-fucopyranosyl)-(1-3))-O-(2-acetamido-2-deoxy-β-D-glucopyranosyl)-(1-3)-O-β-D-galactopyranoside]
Recombinant E-selectin
  inhibition of binding of HL-60 cells to recombinant E-selectin: inhibited in a concentration dependent manner
Recombinant E-selectin; read-out: IC50 for inhibition of HL-60 cell binding to recombinant E-selectin
  pIC50: ~3.30
[1]
  effect on IgA immune complex-induced neutrophil accumulation and pathological sequelae: not IgA
[2]
  extent of myocardial ischemia, of the area at risk: 6±1%
Creatinine kinase
  plasma concentration of creatinine kinase: 7±1 IU/mg protein
[3]; 250μM, thrombin 2 unit/mL
  adhesion of cat PMNs to thrombin stimulated coronary vascular endothelium: blocked the adhesion of cat PMNs
[3]; endothelium from treated animals versus control animals
  adherence of PMNs to coronary endothelium from treated animals: less than that determined in control animals
[4]
  inhibition of leukocyte accumulation: do not provide evidence of the ability of Z to inhibit leukocyte accumulation
